Assay results as given in patent US7521535B2, “Anti-microbial defensin-related peptides and methods of use” (priority 2006, dated 2009).
Entries after “also recorded” stand apart in the source; their conditions may differ. Positions of bridges follow the written chain, without caps; N, C: chain ends. Chains are numbered I, II in the order given. No end group written: not given here.

What was measured:
E. coli O157:H7 [1] = assay: effect of salinity on antibacterial activity; type: cell-based; details: 4 μM peptide, 4 h, up to 200 mM NaCl
Procedure: (§1) FIG. 6. Effect of salinity on the antibacterial activity of rattusin against S. aureus (A) and E. coli O157:H7 (B). S. aureus and E. coli were incubated with 2 and 4 μM of rattusin, or an equal volume of 0.01% acetic acid (no peptide) in 25 mM sodium phosphate buffer, pH 7.4, 1% TSB with increasing concentrations of NaCl, for 4 h. Surviving bacteria were plated and counted. Data shown are means ± SEM of two independent experiments.

S. aureus [2] = assay: effect of salinity on antibacterial activity; type: cell-based; details: 2 μM peptide, 4 h, up to 200 mM NaCl
Procedure: as §1

Caco-2 cells = assay: cytotoxicity assay, alamarBlue dye; type: cell-based, human; details: 100 μM peptide, 24 h, DMEM with and without 10% FBS
Procedure: FIG. 8. Absence of cytotoxicity of rattusin and cryptdin-4 to Caco-2 cells. Cells were incubated with 100 μM of rattusin, cryptdin-4 or fowlicidin-1 for 24 h in DMEM with and without 10% fetal bovine serum for 24 hours. Cell viability was measured with an alamarBlue dye-based method. Data are representative of two independent experiments done in duplicate.
Cytotoxicity against human colon adenocarcinoma (CACO-2) cell line (ATCC, Manassas, Va.) was measured using alamarBlue dye (Biosource, Camarillo, Calif.) as described previously (26, 27). Briefly, CACO-2 cells were seeded into 96 well plate at 5×10^4 in Dulbecco's modified Eagle's medium (DMEM) with 10% FBS and were grown overnight. The next day cells were washed once with DMEM followed by the addition of fresh DMEM with and without 10% FBS and 100 μM of rattusin or cryptdin-4 or fowlicidin-1. […] The plate was read with excitation at 545 nm and emission at 590 nm. The percentage of cell death was calculated as [1−(Fpeptide−Fbackground)/(Facetic acid−Fbackground)]×100, where Fpeptide is the fluorescence of cells exposed to 100 μM peptide, Facetic acid is the fluorescence of cells exposed to 0.01% acetic acid only, and Fbackground is the background fluorescence of 10% alamarBlue dye in cell culture medium without cells.

E. coli O157:H7 [3] = assay: effect of Mg2+ on antibacterial activity; type: cell-based; details: 4 μM peptide, 0, 1, 2 and 5 mM MgCl2, 4 h
Procedure: (§2) FIG. 7. Effect of Mg^2+ on the antibacterial activity of rattusin and cryptdin-4 against S. aureus (A) and E. coli O157:H7 (B). S. aureus or E. coli were incubated with rattusin, cryptdin-4, or an equal volume of 0.01% acetic acid (no peptide) in 25 mM sodium phosphate buffer, containing 1% TSB with 0, 1, 2 and 5 mM MgCl2, pH 7.4, for 4 h. Surviving bacteria were plated and counted. Both peptides were used at identical concentrations for each bacterial strain (2 and 4 μM against S. aureus and E. coli, respectively). Data shown are means ± SEM of 2-3 independent experiments.
(§3) The effect of Mg^2+ on the antibacterial activity was studied by incubating rattusin and cryptdin-4 for 4 h with 90 μl of 5×10^5 CFU/ml Staphylococcus aureus at a concentration of 2 μM each or with E. coli O157:H7 at a concentration of 4 μM each in 1% TSB, 25 mM sodium phosphate buffer, containing 0, 1, 2 and 5 mM of MgCl2, pH 7.4.

S. aureus [4] = assay: effect of Mg2+ on antibacterial activity; type: cell-based, Staphylococcus aureus; details: 2 μM peptide, 0, 1, 2 and 5 mM MgCl2, 4 h
Procedure: as §2, §3

[5] = test system: representative Gram-positive and Gram-negative bacteria; assay: modified broth microdilution assay, summary over strains; type: cell-based; details: 100 mM NaCl versus no NaCl
Procedure: All bacterial strains were purchased from either MicroBiologics (St. Cloud, Minn.) or ATCC (Manassas, Va.). Bacteria were grown in trypticase soy broth (TSB) overnight and subcultured in the same broth for 3-4 h at 37° C. in a shaking incubator to the mid log phase. To study the antibacterial spectrum, a modified broth microdilution assay was used as described (26). Briefly, the mid log phase bacteria were washed with 25 mM sodium phosphate buffer, pH 7.4, and suspended in 5% TSB in 25 mM sodium phosphate, pH 7.4, to 5×10^5 CFU/ml with and without 100 mM NaCl. Bacteria (90 μl) were then dispensed in a 96-well plate, followed by addition of peptides (10 μl) serially diluted in 0.01% acetic acid. After overnight incubation at 37° C., the minimum inhibitory concentration (MIC) of each peptide was determined as the lowest concentration that gave no visible bacterial growth.
Refolded rattusin was then used to study its antibacterial activity against representative Gram-positive and Gram-negative bacteria by a modified broth microdilution assay with and without 100 mM NaCl.

S. aureus ATCC 25923 = assay: kinetics of bacterial killing, colony counting assay; type: cell-based, Staphylococcus aureus; details: 2 μM peptide
Procedure: (§4) FIG. 5. Kinetics of killing of S. aureus in the absence (A) and presence (B) of 100 mM NaCl by rattusin, cryptdin-4 and HD-5. S. aureus ATCC 25923 was incubated with 2 μM rattusin, cryptdin-4, HD-5, or an equal volume of 0.01% acetic acid (no peptide) in duplicate in 25 mM sodium phosphate buffer, pH 7.4, 1% TSB with and without 100 mM NaCl for 10, 30, 60, 120 and 240 min. Surviving bacteria were plated and counted. Data shown are means ± SEM of two independent experiments.
(§5) To study the kinetics of bacterial killing, a standard colony counting assay was used as described (26). Rattusin and cryptin-4 were incubated with 90 μl of 5×10^5 CFU/ml Staphylococcus aureus ATCC 25923 at the concentration of 2 μM each or with E. coli O157:H7 at the concentration of 4 μM each in 25 mM sodium phosphate buffer, pH 7.4, with and without 100 mM NaCl. The reaction was incubated at 37° C. for 10, 30, 60, 120 and 240 min and diluted rapidly with ice-cold PBS and plated immediately. Plates were incubated at 37° C. for 14-18 hours and viable bacteria were counted.

[6] = test system: E. coli O157:H7 ATCC 700728; assay: as above; type: cell-based; details: 4 μM peptide; for killing of E. coli: no NaCl, within 2 h
Procedure: as §4, with “FIG. 4.” for “FIG. 5.”, “of E. coli O157:H7” for “of S. aureus”, “HD-5. E. coli O157:H7” for “HD-5. S. aureus”, “ATCC 700728” for “ATCC 25923”, “with 4” for “with 2”
as §5

bacteria = assay: preliminary antibacterial studies, reduced versus refolded rattusin; type: cell-based; details: data not shown
From the text: Similar to several α- and β-defensins (49-52), the central cysteine-rich motif of rattusin is flanked by long flexible N- and C-terminal tails, which are primarily composed of charged and uncharged polar residues (Table 2). The impact of N- and C-terminal tails and five cysteines of rattusin on its antibacterial, cytotoxic, chemotactic, and immuno-modulatory functions is investigated.

Row | Molecule | antibacterial activity with increasing concentrations of NaCl (E. coli O157:H7 [1]) | antibacterial activity with increasing concentrations of NaCl (S. aureus [2]) | cytotoxicity to Caco-2 cells (Caco-2 cells) | activity against E. coli in the presence of MgCl2 (E. coli O157:H7 [3]) | effect of Mg2+ on activity against S. aureus (S. aureus [4]) | antibacterial activity in the presence of 100 mM NaCl [5] | killing of S. aureus in the presence of 100 mM NaCl (S. aureus ATCC 25923) | killing of E. coli in the presence of 100 mM NaCl [6] | killing of E. coli [6] | antibacterial activity in high salt (bacteria)
1 | I: LRVRRTLQCSCRRVCRNTCSCIRLSRSTYAS / II: LRVRRTLQCSCRRVCRNTCSCIRLSRSTYAS (disulfide I:9-II:21, I:11-II:19, I:15-II:15, I:19-II:11, I:21-II:9) [Rattusin] | maintained antibacterial activity | maintained antibacterial activity | no cytotoxicity | largely unaffected | did not inhibit; also recorded: potentiated | remained largely unchanged | largely unaffected | slightly delayed with a complete killing occurring at 4 h | three logs | –
2 | LRVRRTLQCSCRRVCRNTCSCIRLSRSTYAS [reduced peptide, rattusin in the reduced form, without disulfide bonds] | – | – | – | – | – | – | – | – | – | lost significant activities
3 | HD-5 (peptide, UniProt Q01523 20-94, looked up, Defensin-5) Defensin alpha 5: ESLQERADEATTQKQSGEDNQDLAISFAGNGLSALRTSGSQARATCYCRTGRCATRESLSGVCEISGRLYRLCCR | – | – | – | – | – | – | significantly inhibited | completely inactivated | three logs | –
